Test results taken from paper PMC11475320 (2024).

Key:
Assay in all cases: CD melting at 260 nm
[1] = test system: As1411 (DNA, G4) GGTGGTGGTGGTTGTGGTGGTGGTGG; conditions: K+ 40 mM, Mg2+ from TAMg buffer (0.04×), 2% DMF, 4 μM ZnPc, 16 μM DNA, derived from two Tm (59.8, 61.7)
[2] = test system: AsGq (G-quadruplex of As4625') (DNA, G4) GGTGGTGGTGGTTGTGGTGGTGGTGGAACGGAGGCTGGGAT; conditions: K+ 40 mM, Mg2+ from TAMg buffer (0.04×), 2% DMF, 4 μM ZnPc, 16 μM DNA, derived from two Tm (53.0, 54.6)
[3] = test system: AsGq-4625 (DNA, G4, strand 2: 2'-OMe at 1-5 and 16-20 (text b19; Table S1 footnote says 2'-modification with hydroxy group); phosphorothioate at all linkages) GGTGGTGGTGGTTGTGGTGGTGGTGGAACGGAGGCTGGGAT/AAGGCATCCCAGCCTCCGUU; conditions: K+ 40 mM, Mg2+ from TAMg buffer (0.04×), 2% DMF, 4 μM ZnPc, 16 μM DNA, derived from two Tm (52.3, 53.1)

ΔTm [1]: 1.9 °C | ΔTm [2]: 1.6 °C | ΔTm [3]: 0.8 °C
SMILES: [Zn+2].c1ccc2c(c1)-c1nc3nc(nc4[n-]c(nc5[n-]c(nc-2n1)c1ccccc51)c1ccccc41)-c1ccccc1-3
